The source of these data is ChEMBL document CHEMBL1136186, “Microcystin analogues comprised only of Adda and a single additional amino acid retain moderate activity as PP1/PP2A inhibitors” (Bioorg Med Chem Lett, 2003).

Assay [1] addresses T1, Serine/threonine-protein phosphatase 2A catalytic subunit alpha isoform (Bos taurus, UniProt P67774). Put plainly: Inhibitory concentration against protein phosphatase 2A (PP2A) using pNPP assay. Further details: species or system Oryctolagus cuniculus.
The species named for the next assay is Oryctolagus cuniculus. Description: Ratio of inhibition of PP1 to that of inhibition of PP2A using phosphorylase-a assay.
Assay [2] concerns the target T1, Serine/threonine-protein phosphatase 2A catalytic subunit alpha isoform. Put plainly: Inhibitory concentration against protein phosphatase 2A (PP2A) using phosphorylase-a assay. Further details: species or system Oryctolagus cuniculus.

What is called IC50 is the concentration at which inhibition is half-maximal.

SMILES strings stand for the structures. *1 amine or outer side, *2 acyl side, *3 side chain or, on linkers, in order; H or OH if unused. Where a SMILES comes first, the peptide text is derived from it. Bridges are numbered along the chain shown (N, C = ends). [ ]: non-standard residue; d: D form. Adda = CO[C@@H](Cc1ccccc1)[C@@H](C)/C=C(C)/C=C/[C@H](N[*:1])[C@H](C)C(=O)[*:2]; dAsp(3S-Me) = C[C@H](C(=O)[*:3])[C@@H](N[*:1])C(=O)[*:2]; d(γGlu) = O=C(O)[C@@H](CCC(=O)[*:2])N[*:1]; NMeDha = C=C(NC)C(=O)O

T1 sequence (P67774 whole entry, canonical isoform): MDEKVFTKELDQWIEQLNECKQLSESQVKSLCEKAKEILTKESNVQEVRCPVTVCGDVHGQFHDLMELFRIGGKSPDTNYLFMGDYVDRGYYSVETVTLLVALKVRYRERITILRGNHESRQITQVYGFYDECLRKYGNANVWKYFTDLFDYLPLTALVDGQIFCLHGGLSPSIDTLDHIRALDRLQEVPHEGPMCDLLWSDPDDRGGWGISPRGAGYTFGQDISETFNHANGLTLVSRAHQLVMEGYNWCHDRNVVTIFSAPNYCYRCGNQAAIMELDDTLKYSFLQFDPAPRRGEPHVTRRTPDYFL

With `CO[C@@H](Cc1ccccc1)[C@@H](C)/C=C(C)/C=C/[C@H](NC(C)=O)[C@H](C)C(=O)N1C[C@H](C(=O)O)C[C@H]1C(=O)O`, the IC50 in assay [1] is > 100 µM. Same read-out and setting: then `CO[C@@H](Cc1ccccc1)[C@@H](C)/C=C(C)/C=C/[C@H](NC(C)=O)[C@H](C)C(=O)N1C[C@@H](C(=O)O)C[C@@H]1C(=O)O`, with > 100 µM.

For `C=C1C(=O)N[C@H](C)C(=O)N[C@@H](CC(C)C)C(=O)N[C@@H](C(=O)O)[C@H](C)C(=O)N[C@@H](C)C(=O)N[C@@H](/C=C/C(C)=C/[C@H](C)[C@H](Cc2ccccc2)OC)[C@H](C)C(=O)N[C@@H](C(=O)O)CCC(=O)N1C` (A[Adda][d(γGlu)][NMeDha][dA]L[dAsp(3S-Me)]-OH; lactam N-7), the values for the IC50 in assay [1] and in assay [2] were 0.003 µM and 0.0003 µM, respectively. Moreover, the Ratio in the assay filed under Oryctolagus cuniculus turned out to be 1. Take `CO[C@@H](Cc1ccccc1)[C@@H](C)/C=C(C)/C=C/[C@H](NC(C)=O)[C@H](C)C(=O)N(CC(=O)O)CC(=O)O`: the 50% inhibitory concentration (IC50) in assay [1] was > 100 µM. On the same count and under the same terms, next, `CC(=O)N[C@@H](/C=C/C(C)=C/c1ccc(-c2ccccc2)cc1)[C@H](C)C(=O)N[C@H](C)C(=O)O`: > 100 µM; `CC(=O)N[C@@H](/C=C/C(C)=C/c1ccccc1Cc1ccccc1)[C@H](C)C(=O)N[C@H](C)C(=O)O`: > 100 µM. Regarding `CC(=O)N[C@@H](/C=C/C(C)=C/CCCc1ccccc1)[C@H](C)C(=O)N[C@H](C)C(=O)O`, in assay [1], the IC50 was > 100 µM. On to `CO[C@@H](Cc1ccccc1)[C@@H](C)/C=C(C)/C=C/[C@H](NC(C)=O)[C@H](C)C(=O)N1[C@@H](C(=O)O)CC[C@H]1C(=O)O`, for which half-maximal inhibition in assay [1] (IC50) required 10 µM. Moreover, the Ratio in the assay listed under Oryctolagus cuniculus was > 5. In the case of `COC(=O)[C@H]1CCCN1C(=O)[C@@H](C)[C@H](/C=C/C(C)=C/[C@H](C)[C@H](Cc1ccccc1)OC)NC(C)=O`, the 50% inhibitory concentration (IC50) in assay [1] is > 100 µM. With `CO[C@@H](Cc1ccccc1)[C@@H](C)/C=C(C)/C=C/[C@H](NC(C)=O)[C@H](C)C(=O)N1C[C@H](O[Si](C(C)C)(C(C)C)C(C)C)C[C@@H]1C(=O)O`, in assay [1], the 50% inhibitory concentration (IC50) was > 63 µM. In addition, the Ratio in the assay listed under Oryctolagus cuniculus is > 2. Regarding `CO[C@@H](Cc1ccccc1)[C@@H](C)/C=C(C)/C=C/[C@H](NC(C)=O)[C@H](C)C(=O)N1CCCC1`, the IC50 in assay [1] was > 100 µM. For `COC(=O)[C@@H]1CCCN1C(=O)[C@@H](C)[C@H](/C=C/C(C)=C/[C@H](C)[C@H](Cc1ccccc1)OC)NC(C)=O`, the half-maximal inhibitory concentration (IC50) in assay [1] is > 100 µM. With `CO[C@@H](Cc1ccccc1)[C@@H](C)/C=C(C)/C=C/[C@H](NC(C)=O)[C@H](C)C(=O)NCC(=O)O`, the Ratio in the assay filed under Oryctolagus cuniculus came to 1.11. In assay [2], inhibition was half-maximal at 0.5 µM (IC50).

On to `CO[C@@H](Cc1ccccc1)[C@@H](C)/C=C(C)/C=C/[C@H](NC(C)=O)[C@H](C)C(=O)N[C@H](C)C(=O)O`, for which the IC50 is 7 µM in assay [1] and 0.16 µM in assay [2]. For the same molecule, the Ratio in the assay listed under Oryctolagus cuniculus turned out to be 6. `CO[C@@H](Cc1ccccc1)[C@@H](C)/C=C(C)/C=C/[C@H](NC(C)=O)[C@H](C)C(=O)N[C@@H](C)C(=O)O`: the Ratio in the assay filed under Oryctolagus cuniculus was 1.22. In addition, in assay [2], the IC50 turned out to be 7.8 µM. In the case of `CO[C@@H](Cc1ccccc1)[C@@H](C)/C=C(C)/C=C/[C@H](NC(C)=O)[C@H](C)C(=O)N1CCC[C@@H]1C(=O)O`, in assay [1], the IC50 is > 25 µM. The Ratio in the assay filed under Oryctolagus cuniculus worked out at 2.

Turning to `CO[C@@H](Cc1ccccc1)[C@@H](C)/C=C(C)/C=C/[C@H](NC(C)=O)[C@H](C)C(=O)N1C[C@H](C(=O)O)C[C@@H]1C(=O)O`, the half-maximal inhibitory concentration (IC50) in assay [1] was > 100 µM.

Regarding `CO[C@@H](Cc1ccccc1)[C@@H](C)/C=C(C)/C=C/[C@H](NC(C)=O)[C@H](C)C(=O)N1CCC[C@H]1C(=O)O`, the concentration for half-maximal inhibition (IC50) in assay [1] was > 100 µM.

As for `CO[C@@H](Cc1ccccc1)[C@@H](C)/C=C(C)/C=C/[C@H](NC(C)=O)[C@H](C)C(=O)N1[C@H](C(=O)O)CC[C@H]1C(=O)O`, the 50% inhibitory concentration (IC50) in assay [1] is > 39 µM. Also, the Ratio in the assay filed under Oryctolagus cuniculus is > 1.3.
